Data published in patent US20230381172A1, “COMBINATIONS OF BCL-2 INHIBITORS WITH CHEMOTHERAPEUTIC AGENTS” (RECURIUM IP HOLDINGS, LLC, priority 2020, published 2023).

Legend:
[1] = tested on: HL-60 cells; experiment: In vitro cell assay, CellTiter-Glo cell viability, HL-60; format: cell-based, human; conditions: 10,000 HL-60 cells, 72 h, CTG; 150 nM Compound 5A, 5,000 nM azacitidine, single agent or combination of both
Protocol: (§1) The cells were incubated with the indicated compound at the indicated concentration as described below. The combination indices (CI) were calculated using formula […]. A and B are the percent cell inhibition by single agent treatment, and AB is the percent cell inhibition by the combination.
(§2) For each cell line, the cell viability was assessed using a CellTiter-Glo® (CTG) assay.

[2] = tested on: MV4-11 cells; experiment: In vitro cell assay, CellTiter-Glo cell viability, MV4-11; format: cell-based; conditions: 20,000 MV4-11 cells, 72 h, CTG; 25 nM Compound 5A, 2,272 nM azacitidine, single agent or combination of both
Protocol: as §1, §2

[3] = tested on: MOLM-13 cells; experiment: In vitro cell assay, CellTiter-Glo cell viability, MOLM-13; format: cell-based; conditions: 20,000 MOLM-13 cells, 72 h, CTG; 5 nM Compound 5A, 1,500 nM azacitidine, single agent or combination of both
Protocol: as §1, §2

[4] = tested on: HL-60 cells (human myeloid leukemia cell line); experiment: In vivo efficacy, HL-60 leukemia xenograft model (azacitidine combination, FIG. 5); conditions: HL-60 s.c. xenograft in mice; Compound 5A 50 mg/kg p.o. qd×19; Azacitidine 2.5 mg/kg i.p. qd 5 days on 2 days off; alone or combined
Protocol: Mice were inoculated with HL-60 cells (human myeloid leukemia cell line) subcutaneously on the right flank with the single cell suspension of 95% viable tumor cells (1×10^7) in 100 μL IMDM Matrigel mixture (1:1 ratio) without serum for the tumor development. The treatment was started when the mean tumor size reached approximately 222 mm^3, with individual tumor size ranging from 185-245 mm^3. Animals were randomly distributed into treatment groups of 10 animals each and dosed with vehicle and indicated compounds at indicated dosage and frequency shown in FIG. 5 and Table 3. In FIG. 5, the top line (indicated with circles) is Vehicle control, the second from the top line (indicated with triangles) is Azacitidine (2.5 mg/kg 5 mL/kg i.p. qd (5 days on, 2 days off,)), the second from the bottom line (indicated with circles) is Compound 5A (50 mg/kg 10 mL/kg p.o. qd×19) and the bottom line (indicated with triangles) is Compound 5A (50 mg/kg p.o. qd×19)+Azacitidine (2.5 mg/kg i.p. qd 5×3 (5 days on 2 days off)). Tumor volumes were evaluated twice per week to calculate tumor volume over time, and mice were weighed twice per week as a surrogate for signs of toxicity. Tumor growth inhibition (TGI) was calculated using the following equation TGI=(1-(Td−T0)/(Cd−C0))×100%. […]

[5] = tested on: RS4;11 cells; experiment: In vitro cell assay, CellTiter-Glo cell viability, RS4;11; format: cell-based; conditions: 50,000 RS4;11 cells, 72 h, CTG; 5 nM Compound 5A, 1,500 nM azacitidine, single agent or combination of both
Protocol: as §1, §2

[6] = tested on: HL-60 cells (human myeloid leukemia cell line); experiment: In vivo efficacy, HL-60 leukemia xenograft model (cytarabine combination, FIG. 6); conditions: HL-60 s.c. xenograft in mice; Compound 5A 25 mg/kg p.o. qd×19; Cytarabine 5 mg/kg i.p. qd 5 days on 2 days off; alone or combined
Protocol: Mice were inoculated with HL-60 cells (human myeloid leukemia cell line) subcutaneously on the right flank with the single cell suspension of 95% viable tumor cells (1×10^7) in 100 μL IMDM Matrigel mixture (1:1 ratio) without serum for the tumor development. The treatment was started when the mean tumor size reached approximately 218 mm^3, with individual tumor size ranging from 185-245 mm^3. Animals were randomly distributed into treatment groups of 10 animals each and dosed with vehicle and indicated compounds at indicated dosage and frequency shown in FIG. 6 and Table 3. In FIG. 6, the top line (indicated with triangles) is Cytarabine (5.0 mg/kg), the second from the top line (indicated with circles) is Vehicle control, the second from the bottom line (indicated with diamonds) is Compound 5A (25 mg/kg) and the bottom line (indicated with circles) is Compound 5A (25 mg/kg p.o. qd×19)+Cytarabine (5 mg/kg i.p. qd 5×3 (5 days on 2 days off)). Tumor volumes were evaluated twice per week to calculate tumor volume over time, and mice were weighed twice per week as a surrogate for signs of toxicity. Tumor growth inhibition (TGI) was calculated using the following equation TGI=(1−(Td−T0)/(Cd−C0))×100%. Td and Cd are the mean tumor volumes of the treated and control animals, and TO and CO are the mean tumor volumes of the treated and control animals at the start of the experiment. […]

[7] = tested on: DOHH cells (non-Hodgkin's cell line); experiment: In vivo efficacy, DOHH non-Hodgkin's model (bendamustine combination, FIG. 8); conditions: DOHH s.c. xenograft in mice; Compound 5A 100 mg/kg p.o. qd×13; Bendamustine 25 mg/kg i.v. qd×1; alone or combined
Protocol: Tumor volumes were evaluated twice per week to calculate tumor volume over time, and mice were weighed twice per week as a surrogate for signs of toxicity. Tumor growth inhibition (TGI) was calculated using the following equation TGI=(1−(Td−T0)/(Cd−C0))×100%. Td and Cd are the mean tumor volumes of the treated and control animals, and T0 and C0 are the mean tumor volumes of the treated and control animals at the start of the experiment. The tumor regression was defined as individual tumor volume (TV) decrease (terminal TV compared to initial TV).

[8] = tested on: KMS-12-BM cells; experiment: In vivo efficacy, KMS-12-BM model (bortezomib combination, FIG. 7); conditions: KMS-12-BM s.c. xenograft in mice; Compound 5A 50 mg/kg p.o. qd×21; Bortezomib 0.5 mg/kg i.p. BIW; alone or combined
Protocol: Mice were inoculated with KMS-12-BM cells ([…]) subcutaneously on the right flank with the single cell suspension of 95% viable tumor cells (1×10^7) in 100 μL IMDM Matrigel mixture (1:1 ratio) without serum for the tumor development. The treatment was started when the mean tumor size reached approximately 222 mm^3, with individual tumor size ranging from 185-245 mm^3. Animals were randomly distributed into treatment groups of 10 animals each and dosed with vehicle and indicated compounds at indicated dosage and frequency shown in FIG. 7 and Table 3. In FIG. 7, the top line (indicated with diamonds) is Vehicle control, the second from the top line (indicated with squares) is Compound 5A (50 mg/kg), the second from the bottom line (indicated with “x”) is Bortezomib (0.5 mg/kg) and the bottom line ([…]). Tumor volumes were evaluated twice per week to calculate tumor volume over time, and mice were weighed twice per week as a surrogate for signs of toxicity. Tumor growth inhibition (TGI) was calculated using the following equation TGI=(1−(Td−T0)/(Cd−C0))×100%. Td and Cd are the mean tumor volumes of the treated and control animals, and T0 and C0 are the mean tumor volumes of the treated and control animals at the start of the experiment. The tumor regression was defined as individual tumor volume (TV) decrease (terminal TV compared to initial TV).

Nc1ncn([C@@H]2O[C@H](CO)[C@@H](O)[C@H]2O)c(=O)n1 [Azacitidine, azacitidine]
HL60 % inhibition [1]: 21.6%
MV4;11 % inhibition [2]: 82.9%
MOLM-13 % inhibition [3]: 47.0%
TGI % Day 18 [4]: 11%
RS4;11 % inhibition [5]: 32.5%

Nc1ccn([C@@H]2O[C@H](CO)[C@@H](O)[C@@H]2O)c(=O)n1 [Cytarabine]
TGI % Day 18 [6]: −6%

Cn1c(CCCC(=O)O)nc2cc(N(CCCl)CCCl)ccc21 [Bendamustine]
TGI % Day 26 [7]: 44%

CC(C)C[C@H](NC(=O)[C@H](Cc1ccccc1)NC(=O)c1cnccn1)B(O)O [Bortezomib, bortezomib]
TGI % Day 14 [8]: 46%
